Series [1] is described as follows: DRUGMATRIX: ATPase, Na+/K+ enzyme inhibition (substrate: ATP). It is filed as tissue-based, Sus scrofa, Heart. Conditions: Not Active = under 50% inhibition at 10 µM.
A short description of series [2]: DRUGMATRIX: Serotonin (5-Hydroxytryptamine) 5-HT3 radioligand binding (ligand: [3H] GR-65630). It is filed as cell membranes, Membrane. Conditions: hek293; Not Active = under 50% inhibition at 10 µM.
For series [3], the target named is Vascular endothelial growth factor receptor 1 (Homo sapiens, UniProt P17948). It is filed as cell-based. Conditions: huvec. Note: in other assays of this panel Not Active means under 50% inhibition at 10 µM.
Sequence of Vascular endothelial growth factor receptor 1 (P17948 whole entry): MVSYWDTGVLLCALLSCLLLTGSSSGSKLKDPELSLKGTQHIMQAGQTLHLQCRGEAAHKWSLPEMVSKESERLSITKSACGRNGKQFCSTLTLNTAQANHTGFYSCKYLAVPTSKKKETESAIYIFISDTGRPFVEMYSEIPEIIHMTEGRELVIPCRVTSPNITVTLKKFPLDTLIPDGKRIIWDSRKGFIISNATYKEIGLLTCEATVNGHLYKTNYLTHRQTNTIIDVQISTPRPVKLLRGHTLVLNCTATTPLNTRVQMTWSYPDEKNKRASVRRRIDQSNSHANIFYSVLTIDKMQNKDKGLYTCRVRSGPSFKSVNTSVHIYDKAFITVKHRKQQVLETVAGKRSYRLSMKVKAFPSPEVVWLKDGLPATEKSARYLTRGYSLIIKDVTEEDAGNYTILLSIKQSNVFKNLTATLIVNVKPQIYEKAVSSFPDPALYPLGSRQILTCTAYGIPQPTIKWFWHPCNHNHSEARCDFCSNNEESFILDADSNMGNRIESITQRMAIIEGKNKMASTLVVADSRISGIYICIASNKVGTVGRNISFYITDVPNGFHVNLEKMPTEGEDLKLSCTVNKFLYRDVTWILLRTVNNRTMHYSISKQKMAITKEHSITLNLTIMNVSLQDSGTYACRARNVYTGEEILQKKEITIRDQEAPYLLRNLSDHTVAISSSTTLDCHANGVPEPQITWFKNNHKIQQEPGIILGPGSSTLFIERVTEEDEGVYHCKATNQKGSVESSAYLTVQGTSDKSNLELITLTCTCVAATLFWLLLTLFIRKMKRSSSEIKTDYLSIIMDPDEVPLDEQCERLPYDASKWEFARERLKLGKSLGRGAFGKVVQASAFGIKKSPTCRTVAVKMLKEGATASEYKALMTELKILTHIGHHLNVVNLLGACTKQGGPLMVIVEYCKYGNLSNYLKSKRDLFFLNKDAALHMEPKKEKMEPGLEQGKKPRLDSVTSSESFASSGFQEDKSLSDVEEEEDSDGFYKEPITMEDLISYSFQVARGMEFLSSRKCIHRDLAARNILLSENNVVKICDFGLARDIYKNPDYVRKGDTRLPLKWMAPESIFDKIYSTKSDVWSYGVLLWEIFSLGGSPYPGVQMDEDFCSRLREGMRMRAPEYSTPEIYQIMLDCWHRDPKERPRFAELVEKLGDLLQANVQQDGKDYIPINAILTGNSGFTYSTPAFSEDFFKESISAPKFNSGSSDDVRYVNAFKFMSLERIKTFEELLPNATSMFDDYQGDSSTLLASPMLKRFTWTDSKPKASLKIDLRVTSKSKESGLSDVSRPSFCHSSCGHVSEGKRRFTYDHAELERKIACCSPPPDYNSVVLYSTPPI
A short description of series [4]: DRUGMATRIX: GABAA, Muscimol, Central radioligand binding (ligand: [3H] Muscimol). Type of series: cell membranes, Rattus norvegicus, Wistar, Brain, Membrane. Conditions: Not Active = under 50% inhibition at 10 µM.
Series [5] can be described thus: DRUGMATRIX: GABAA, Flunitrazepam, Central radioligand binding (ligand: [3H] Flunitrazepam). It is filed as cell membranes, Rattus norvegicus, Wistar, Brain, Membrane. Conditions: Not Active = under 50% inhibition at 10 µM.
The nature of series [6]: DRUGMATRIX: Glutamate, Kainate radioligand binding (ligand: [3H] Kainic acid). It is filed as cell membranes, Rattus norvegicus, Wistar, Brain, Membrane. Conditions: Not Active = under 50% inhibition at 10 µM.
Series [7] in a line: DRUGMATRIX: Leukotriene, BLT (LTB4) radioligand binding (ligand: [3H]LTB4). Type of series: cell membranes, Membrane. Conditions: u-937; Not Active = under 50% inhibition at 10 µM.
In the next series the target is Melanocortin receptor 5 (Homo sapiens, UniProt P33032). Type of series: cell membranes, Membrane. Conditions: hek293. Note: in other assays of this panel Not Active means under 50% inhibition at 10 µM.
Sequence of Melanocortin receptor 5 (P33032 whole entry): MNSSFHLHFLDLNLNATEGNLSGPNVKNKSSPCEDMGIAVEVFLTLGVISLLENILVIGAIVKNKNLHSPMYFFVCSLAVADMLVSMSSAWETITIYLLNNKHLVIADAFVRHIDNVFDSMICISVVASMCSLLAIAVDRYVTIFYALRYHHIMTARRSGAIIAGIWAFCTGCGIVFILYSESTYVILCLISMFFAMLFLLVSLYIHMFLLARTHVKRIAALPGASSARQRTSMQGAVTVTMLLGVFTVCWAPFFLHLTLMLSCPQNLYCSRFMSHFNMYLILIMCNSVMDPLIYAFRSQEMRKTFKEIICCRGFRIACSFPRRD
In series [8] the target is T1, Muscarinic acetylcholine receptor M5 (Homo sapiens, UniProt P08912). Note: in other assays of this panel Not Active means under 50% inhibition at 10 µM.
T1 sequence (P08912 whole entry): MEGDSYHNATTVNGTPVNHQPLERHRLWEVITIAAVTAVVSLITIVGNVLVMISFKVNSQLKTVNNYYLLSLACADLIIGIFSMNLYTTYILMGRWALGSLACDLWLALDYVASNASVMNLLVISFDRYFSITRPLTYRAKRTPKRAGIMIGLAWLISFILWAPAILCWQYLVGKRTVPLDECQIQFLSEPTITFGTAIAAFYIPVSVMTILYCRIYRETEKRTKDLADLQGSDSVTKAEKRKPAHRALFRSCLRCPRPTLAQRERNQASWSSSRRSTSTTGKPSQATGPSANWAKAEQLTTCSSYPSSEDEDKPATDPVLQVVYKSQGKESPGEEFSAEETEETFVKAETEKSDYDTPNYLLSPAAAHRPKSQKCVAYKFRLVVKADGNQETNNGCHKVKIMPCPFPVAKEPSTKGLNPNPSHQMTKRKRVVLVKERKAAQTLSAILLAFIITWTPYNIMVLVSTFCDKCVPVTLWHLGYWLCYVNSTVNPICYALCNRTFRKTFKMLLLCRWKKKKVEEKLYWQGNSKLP
It is filed as cell membranes, CHO-K1, Membrane.

The next series concerns the target Cytochrome P450 2C9 (Homo sapiens, UniProt P11712). Conditions: bti-tn-5b1-4. Note: in other assays of this panel Not Active means under 50% inhibition at 10 µM.
The next series addresses T2, Glucocorticoid receptor (Homo sapiens, UniProt P04150).
T2 sequence (P04150 whole entry): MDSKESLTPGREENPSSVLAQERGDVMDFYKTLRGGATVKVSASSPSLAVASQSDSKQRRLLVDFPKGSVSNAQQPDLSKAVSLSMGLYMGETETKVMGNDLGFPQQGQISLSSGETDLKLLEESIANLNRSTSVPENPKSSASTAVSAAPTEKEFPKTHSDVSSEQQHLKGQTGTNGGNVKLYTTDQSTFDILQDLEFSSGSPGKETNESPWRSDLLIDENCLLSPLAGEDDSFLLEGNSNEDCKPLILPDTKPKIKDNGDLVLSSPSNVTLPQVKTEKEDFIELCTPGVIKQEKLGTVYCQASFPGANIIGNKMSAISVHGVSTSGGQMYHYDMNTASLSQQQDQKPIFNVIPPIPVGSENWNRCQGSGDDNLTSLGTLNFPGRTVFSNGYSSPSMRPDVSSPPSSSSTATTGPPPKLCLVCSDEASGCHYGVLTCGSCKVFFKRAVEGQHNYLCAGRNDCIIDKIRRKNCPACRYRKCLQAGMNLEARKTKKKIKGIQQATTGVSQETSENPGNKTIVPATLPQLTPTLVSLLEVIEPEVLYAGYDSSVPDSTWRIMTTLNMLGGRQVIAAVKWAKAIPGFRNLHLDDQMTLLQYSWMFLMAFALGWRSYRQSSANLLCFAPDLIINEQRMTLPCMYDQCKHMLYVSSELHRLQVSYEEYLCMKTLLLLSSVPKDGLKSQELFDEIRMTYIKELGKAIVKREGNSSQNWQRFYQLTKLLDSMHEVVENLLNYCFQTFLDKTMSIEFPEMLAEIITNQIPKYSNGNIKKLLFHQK
Conditions: hela s3.

Structures are written as SMILES.

Sequence of Cytochrome P450 2C9 (P11712 whole entry): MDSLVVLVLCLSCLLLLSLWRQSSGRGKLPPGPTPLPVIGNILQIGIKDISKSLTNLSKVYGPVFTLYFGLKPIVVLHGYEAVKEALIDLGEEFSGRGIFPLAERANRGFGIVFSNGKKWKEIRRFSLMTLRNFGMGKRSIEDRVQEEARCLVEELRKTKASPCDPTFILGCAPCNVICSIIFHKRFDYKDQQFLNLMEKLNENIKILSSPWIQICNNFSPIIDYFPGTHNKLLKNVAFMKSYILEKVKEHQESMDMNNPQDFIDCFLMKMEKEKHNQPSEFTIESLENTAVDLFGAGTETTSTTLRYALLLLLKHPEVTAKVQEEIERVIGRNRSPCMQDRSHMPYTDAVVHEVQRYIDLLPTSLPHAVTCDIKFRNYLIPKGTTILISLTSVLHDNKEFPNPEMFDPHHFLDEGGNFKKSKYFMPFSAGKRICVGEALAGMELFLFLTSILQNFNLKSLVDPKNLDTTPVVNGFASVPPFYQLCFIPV

`CC1=C(CC(=O)O)c2cc(F)ccc2/C1=C\c1ccc([S+](C)[O-])cc1` (stereo not drawn): the IC50 entry in series [1], in [2], in series [3], in [4], in series [5] and in series [6] was “Not Active” throughout. Also, the IC50 result (in series [7]; on Melanocortin receptor 5; in [8] (cho-k1); on Cytochrome P450 2C9; at Glucocorticoid receptor) was “Not Active” each time. For the same compound, the Ki entry in series [1], in series [2], in [4], in series [5], in series [6] and in series [7] was “Not Active” throughout. Further, the Ki entry at Cytochrome P450 2C9 is listed as “Not Active”.

As for `N[C@H](CSC(=S)NCc1ccccc1)C(=O)O`, the IC50 entry in [1], in series [2], in series [3], in series [4], in series [5] and in series [6] was “Not Active” in each case. The IC50 entry (in [7]; on Melanocortin receptor 5; in series [8] (cho-k1); at Cytochrome P450 2C9; at Glucocorticoid receptor) was “Not Active” each time. The Ki entry in [1], in series [2], in series [4], in series [5], in series [6] and in series [7] was “Not Active” in each case. Also, the Ki entry on Cytochrome P450 2C9 was “Not Active”.

For the compound `Clc1ccc2c(c1)C(N1CCNCC1)=Nc1ccccc1O2` [AMOXAPINE], the IC50 result (in series [3]; against Melanocortin receptor 5; on Cytochrome P450 2C9; at Glucocorticoid receptor) was “Not Active” throughout. Besides, the Ki result at Cytochrome P450 2C9 is reported as “Not Active”.

With `COc1cc2c(c(OC)c1OC)-c1ccc(OC)c(=O)cc1[C@@H](NC(C)=O)CC2` [COLCHICINE], the IC50 result (in series [3]; on Melanocortin receptor 5; in series [8] (cho-k1); against Cytochrome P450 2C9; against Glucocorticoid receptor) was “Not Active” throughout. Further, the Ki entry at Cytochrome P450 2C9 was “Not Active”.

On to `CN1CCC(=C2c3ccccc3C=Cc3ccccc32)CC1` [CYPROHEPTADINE], for which the IC50 result was “Not Active” in [3]; “Not Active” at Melanocortin receptor 5; 3.83 nM in [8] (read-out: IC50); “Not Active” on Cytochrome P450 2C9; “Not Active” on Glucocorticoid receptor. Moreover, the Ki in series [8] (read-out: Ki) is 2.75 nM; on Cytochrome P450 2C9, “Not Active”.

With `CC/C(=C(/CC)c1ccc(O)cc1)c1ccc(O)cc1` [DIETHYLSTILBESTROL], the IC50 result (in series [3]; against Melanocortin receptor 5; against Cytochrome P450 2C9) was “Not Active” each time. Besides, at Cytochrome P450 2C9, the Ki result is given as “Not Active”.

Consider `C=CCN1CC[C@]23c4c5ccc(O)c4O[C@H]2C(=O)CC[C@@]3(O)[C@H]1C5` [NALOXONE], for which the IC50 result (in series [3]; against Melanocortin receptor 5; in [8] (cho-k1)) was “Not Active” in each case.

On to `COCCOC(=O)C1=C(C)NC(C)=C(C(=O)OC(C)C)C1c1cccc([N+](=O)[O-])c1` (stereo not drawn) [NIMODIPINE], for which the IC50 entry in series [1], in [2], in [3], in series [4], in [5] and in series [6] was “Not Active” each time. The IC50 result (in series [7]; against Melanocortin receptor 5; in series [8] (cho-k1); on Glucocorticoid receptor) was “Not Active” in each case. The Ki result in series [1], in [2], in series [4], in [5], in [6] and in [7] was “Not Active” in each case.

Take `CC(C)NCC(O)COc1cccc2ccccc12` (stereo not drawn) [PROPRANOLOL]: the concentration for half-maximal inhibition (IC50) entry (in series [3]; against Melanocortin receptor 5; in [8] (cho-k1); at Cytochrome P450 2C9) was “Not Active” in each case. Further, at Cytochrome P450 2C9, the Ki result was “Not Active”.

For `O=C(c1ccc(OCCN2CCCCC2)cc1)c1c(-c2ccc(O)cc2)sc2cc(O)ccc12` [RALOXIFENE], the IC50 result in [1], in [2], in series [3], in series [4], in series [5] and in [6] was “Not Active” each time. Besides, the IC50 entry (in [7]; against Melanocortin receptor 5; in series [8] (cho-k1); at Glucocorticoid receptor) was “Not Active” each time. Further, the Ki entry in series [1], in series [2], in series [4], in [5], in series [6] and in series [7] was “Not Active” throughout.

Take `CC(C)c1nc(CN(C)C(=O)N[C@H](C(=O)N[C@@H](Cc2ccccc2)C[C@H](O)[C@H](Cc2ccccc2)NC(=O)OCc2cncs2)C(C)C)cs1` [RITONAVIR]: the IC50 result in series [1], in series [2], in series [3], in series [4], in [5] and in series [6] was “Not Active” each time. In addition, the IC50 result (in [7]; against Melanocortin receptor 5; in series [8] (cho-k1); on Glucocorticoid receptor) was “Not Active” in each case. Besides, the Ki result in series [1], in [2], in series [4], in series [5], in series [6] and in series [7] was “Not Active” each time.

Regarding `COc1cc(NS(=O)(=O)c2ccc(N)cc2)nc(OC)n1` [SULFADIMETHOXINE], the IC50 entry in series [1], in series [2], in series [3], in series [4], in [5] and in [6] was “Not Active” in each case. Further, the IC50 result (in series [7]; against Melanocortin receptor 5; in series [8] (cho-k1); against Glucocorticoid receptor) was “Not Active” in each case. The Ki result in series [1], in [2], in series [4], in series [5], in series [6] and in series [7] was “Not Active” throughout.

On to `CC(C)(C)c1ccc(C(O)CCCN2CCC(C(O)(c3ccccc3)c3ccccc3)CC2)cc1` (stereo not drawn) [TERFENADINE], for which the IC50 result in [1], in [2], in [3], in [4], in series [5] and in series [6] was “Not Active” each time. Also, the IC50 entry (in [7]; at Melanocortin receptor 5; in [8] (cho-k1); at Glucocorticoid receptor) was “Not Active” in each case. Besides, the Ki result in series [1], in series [2], in series [4], in [5], in series [6] and in [7] was “Not Active” each time.

As for `CC(=O)CC(c1ccccc1)c1c(O)c2ccccc2oc1=O` (stereo not drawn) [WARFARIN], the IC50 entry in series [1], in series [2], in series [3], in series [4], in series [5] and in series [6] was “Not Active” throughout. Also, the IC50 result (in [7]; against Melanocortin receptor 5; in series [8] (cho-k1); against Cytochrome P450 2C9) was “Not Active” each time. For the same compound, the Ki result in series [1], in series [2], in series [4], in series [5], in [6] and in series [7] was “Not Active” throughout. For the same compound, the Ki entry on Cytochrome P450 2C9 was “Not Active”.
